Data: patent US20260240941A1, “TREATMENT AND PREVENTION OF AGENT-INDUCED LIVER CONDITIONS OR DISEASES” (FARSIGHT MEDICAL TECHNOLOGY (SHANGHAI) CO., LTD., priority 2023, published 2026)
Entries after “also recorded” stand apart in the source; their conditions may differ.

Key:
[1] = system: C57BL/6J wild-type mice; test: Alcohol-induced liver injury in mice (chronic 8 weeks ethanol diet plus multiple binges, E8w+nB); format: in vivo; details: 10 mg/kg i.p. daily for the last two weeks of 8 weeks alcohol plus binges
Description: C57BL/6J wild-type mice were purchased from Guangdong Medical Animal Centre (Guangzhou, China). Male mice (n=7, 8 weeks of age) were randomly assigned to the different treatment groups. The mice were initially fed a controlled Lieber-DeCarli diet ad libitum for 5 days (TP4030C, Trophic Animal Feed High-Tech Co., Ltd, China) to acclimatize them to a liquid diet. Subsequently, the ethanol-fed groups were allowed free access for 8 weeks to an ethanol diet (TP4030D, Trophic) containing 5% (vol/vol) ethanol.
Chronic (8 weeks)-plus-multiple binges (E8w+nB): mice were fed an ethanol Lieber-DeCarli diet for 8 weeks as described above and treated by gavage administration twice a week (5 g/kg ethanol) during the 8-week feeding. Mice were euthanized 9 h post gavage.
The control mice were pair-fed an isocaloric control liquid diet for 8 weeks (P8w), followed by gavage administration of isocaloric liquid dextrin-maltose (Ctrl), without exposure to alcohol.
Compound 1 was made fresh for each experiment in sterile 0.9% saline at 20 mg/ml and administered intraperitoneally (10 mg/kg) daily for the last two weeks.
Blood samples and livers were harvested for serum ALT and AST, and histology. All liver sections were stained with H&E and Oil Red O staining. The features of alcoholic liver disease (“ALD”) are scored according to the non-alcoholic fatty liver disease (“NAFLD”) activity score (“NAS”) originally developed to measure changes in NAFLD during therapeutic trials but is also applicable to ALD. The ALD score of each group was calculated according to standard procedures.
Oil Red O is a fat-soluble azo dye, used to stain fats, specifically neutral triglycerides, lipids and lipoproteins in tissues and cells. […] The Oil Red O quantification “a.v.” means a subjective quantity, i.e., “arbitrary value”. The image quantification software ImageJ was used to select the area of oil red staining in liver sections and the area of lipid droplets in quantitative sections.

[2] = system: C57BL/6J wild-type mice; test: Acetaminophen-induced liver injury model in mice; format: in vivo; details: for Necrotic Area (%) of the liver (liver tissue protection): 5 mg/kg and 10 mg/kg i.v. 1 h after APAP 300 mg/kg i.p.; for Necrotic Area (%) of the liver (liver tissue protection) / ALT biomarker level / AST biomarker level: vs APAP alone
Method: C57BL/6J wild-type mice were purchased from Guangdong Medical Animal Centre (Guangzhou, China). Male mice (n=8, 8 weeks of age) were randomly assigned to the different treatment groups. Mice were acclimatized to their environment for 1 week before the experiments. Animals were fasted overnight, but allowed access to water, before acetaminophen (APAP) administration.
APAP (Sigma Aldrich) was dissolved in warm phosphate-buffered saline (PBS; 55° C.) that was cooled to 37° C. before injection and administered intraperitoneally with APAP at a dose of 300 mg/kg after 15 hours of starvation. Compound 1 was made fresh for each experiment in sterile 0.9% saline at 20 mg/ml. N-acetylcysteine (NAC, Sigma Aldrich) was made fresh for each experiment in 0.9% saline at 20 mg/ml.
After APAP administration (1 hours), either PBS (Control Group), Compound 1 (10 mg/kg, 5 mg/kg, 2.5 mg/kg, 1 mg/kg) or NAC (150 mg/kg) were injected intravenously in the tail vein of mice. In the Control Group, the mice were injected with phosphate-buffered saline vehicle (labelled “Ctrl” in the Figures), in the Vigilance Group the mice were injected with Compound 1 (labelled “v-Compound 1-10 mg” in the Figures). In both the Control and Vigilance Groups, no APAP was administered.
Mice were sacrificed at 6 and 24 hours after administration of APAP. Blood samples and livers were harvested for serum ALT (alanine aminotransferase) and AST (aspartate aminotransferase), and histology. ALT and AST in serum samples were detected using the alanine aminotransferase assay kit (S03030) and the aspartate aminotransferase assay kit (S03040) and automated clinical chemistry analyzer (Chemray 800) from Rayto.
All liver sections were stained with a hematoxylin and eosin (H&E) stain. Necrotic area was measured and expressed as a percentage of necrotic tissue in whole area of liver section. All animal procedures were approved by the Laboratory Animals Ethics Committee of Jinan University (Guangzhou, China).

[3] = 5 mg/kg and 10 mg/kg i.v., 6 hours after APAP
[4] = 5 mg/kg and 10 mg/kg i.v., 24 hours after APAP
[5] = all Compound 1 levels (1, 2.5, 5, 10 mg/kg i.v.), 6 hours after APAP
[6] = all Compound 1 levels (1, 2.5, 5, 10 mg/kg i.v.), 24 hours after APAP

## C/C=C/C[C@@H](C)[C@@H](O)[C@H]1C(=O)N[C@@H](CC)C(=O)N(C)[C@H](OCCN(C)C)C(=O)N(C)[C@@H](CC(C)C)C(=O)N[C@@H](C(C)C)C(=O)N(C)[C@@H](CC(C)C)C(=O)N[C@@H](C)C(=O)N[C@H](C)C(=O)N(C)[C@@H](CC(C)C)C(=O)N(C)[C@@H](CC(C)C)C(=O)N(C)[C@@H](C(C)C)C(=O)N1C [Compound 1, [(R)-2′(2-dimethylaminoethoxy)-Sar]^3 cyclosporin A]
[1]; vs untreated ALD
  serum ALT (alanine aminotransferase) level: reduces
  serum AST (aspartate aminotransferase) level: reduces
[1]; vs untreated ALD Group
  hepatic lipid accumulation (Oil Red O liver staining, a.v.): reduces hepatic lipid accumulation
[2]; 2.5 mg/kg, 5 mg/kg and 10 mg/kg i.v., 6 hours after APAP
  TNF-α, IL-1β, and/or IL-6 inflammation biomarker levels of the liver: reduced
[2]; 6 hours after APAP
  Necrotic Area (%) of the liver (liver tissue protection): showed liver tissue protection; also recorded: reduced necrotic area
[2]; 24 hours after APAP
  Necrotic Area (%) of the liver (liver tissue protection): showed liver tissue protection; also recorded: reduced necrotic area
[2]; [3]
  IL-1β inflammation biomarker (ELISA): reduced
  IL-6 inflammation biomarker (ELISA): reduced
  TNF-α inflammation biomarker (ELISA): reduced
  ALT biomarker level: reduced
  AST biomarker level: reduced
[2]; [4]
  IL-1β inflammation biomarker (ELISA): reduced
  IL-6 inflammation biomarker (ELISA): reduced
  TNF-α inflammation biomarker (ELISA): reduced
  ALT biomarker level: reduced
  AST biomarker level: reduced
[2]; [5]
  serum ALT (alanine aminotransferase) biomarker level: reduced
  serum AST (aspartate aminotransferase) biomarker level: reduced
[2]; [6]
  TNF-α, IL-1β, and/or IL-6 inflammation biomarker levels of the liver: reduced
  serum ALT (alanine aminotransferase) biomarker level: reduced
  serum AST (aspartate aminotransferase) biomarker level: reduced
